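1) Cells in 96-well plates. 2) Compound, 48 h, 5 concentrations. 3) Linear interpolation between surrounding doses. 4) Unreached endpoint = highest concentration. The concentration for 50% growth inhibition is given as GI50.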 Active and inactive are the calls of the source. Rule as the data show it: active = GI50 up to about 1.1 µM and inactive = higher.
What was measured:
Assay in all cases: NCI tumour cell line growth inhibition, 48 h
OVCAR-5 = test system: OVCAR-5
SK-OV-3 = test system: SK-OV-3
SK-MEL-5 = test system: SK-MEL-5
OVCAR-8 = test system: OVCAR-8
HOP-62 = test system: HOP-62
SK-MEL-28 = test system: SK-MEL-28
SK-MEL-2 = test system: SK-MEL-2
HOP-92 = test system: HOP-92
KM12 = test system: KM12
CCRF-CEM = test system: CCRF-CEM
NCI-H460 = test system: NCI-H460
SNB-19 = test system: SNB-19
IGROV-1 = test system: IGROV-1
SF-295 = test system: SF-295
UACC-62 = test system: UACC-62
HT-29 = test system: HT-29
COLO 205 = test system: COLO 205
U-251 = test system: U-251
HL-60 = test system: HL-60
K562 = test system: K562

Measured: GI50

O=C1CCCC/C1=C1/SC(=N/c2ccccc2)/C(=N\c2ccccc2)N1c1ccccc1
inactive: OVCAR-5 > 100 µM | SK-OV-3 > 100 µM | SK-MEL-5 > 10 µM | OVCAR-8 > 100 µM | HOP-62 36.1 µM | SK-MEL-28 > 100 µM | SK-MEL-2 > 100 µM | HOP-92 > 100 µM | KM12 > 100 µM | CCRF-CEM > 100 µM | NCI-H460 > 100 µM | SNB-19 > 100 µM | IGROV-1 > 100 µM | SF-295 86.3 µM | UACC-62 38.1 µM | HT-29 > 100 µM | COLO 205 > 100 µM | U-251 > 100 µM | HL-60 > 100 µM | K562 > 100 µM

O=C(Nc1ccc([N+](=O)[O-])cc1)C(=O)C(C(=O)c1ccccc1F)C1OC(=O)c2ccccc21 (stereo not given)
inactive: OVCAR-5 58.3 µM | SK-OV-3 41.2 µM | SK-MEL-5 48.5 µM | OVCAR-8 35.9 µM | HOP-62 58.1 µM | SK-MEL-28 46.9 µM | SK-MEL-2 23.7 µM | HOP-92 > 100 µM | KM12 42.4 µM | CCRF-CEM 16.6 µM | NCI-H460 34.9 µM | SNB-19 26.4 µM | IGROV-1 64.9 µM | SF-295 40.3 µM | UACC-62 25.2 µM | HT-29 51.9 µM | COLO 205 25.9 µM | U-251 17.7 µM | HL-60 22.2 µM | K562 25.3 µM

CN(C)CCOc1cc2c(c3ccccc13)-c1ccccc1C2O (stereo not given)
inactive: OVCAR-5 13 µM | SK-OV-3 16.1 µM | SK-MEL-5 15.5 µM | OVCAR-8 11.7 µM | HOP-62 14.9 µM | SK-MEL-28 16 µM | SK-MEL-2 17.2 µM | HOP-92 6.56 µM | KM12 14.8 µM | CCRF-CEM 14.1 µM | NCI-H460 7.21 µM | SNB-19 8.28 µM | IGROV-1 16.7 µM | SF-295 13.5 µM | UACC-62 17.2 µM | HT-29 13.5 µM | COLO 205 12.5 µM | U-251 15.5 µM | HL-60 11.6 µM | K562 18.6 µM
